Read-outs that look alike come from different tables or passages of the source.
Assays:
[1] = tested on: sugar beet plants comprising SEQ.ID.NO:3 and SEQ.ID.NO:5 on two different alleles (Line A); assay: Greenhouse trial, damage (phytotoxicity) rating after ALS inhibitor treatment, Line A; assay type: in vivo, Beta vulgaris L. ssp. vulgaris
Procedure: Mutated sugar beet plants comprising SEQ.ID.NO:3 and SEQ.ID.NO:5 (on two different alleles) according to the present invention (as described in Example 4 above, “Line A”) were treated with different ALS inhibitors in direct comparison with sugar beet plants where the tryptophan at position 569 of the encoded ALS enzyme is substituted by a leucine (“Line B”), sugar beet plants described in WO 98/02527 where the proline at position 188 of the encoded ALS enzyme is substituted by a serine (“Line C”), and traditional variety (wild-type) sugar beet plants not having a mutation at positions 569 and 188 (“Line WT”).
Several groups of seeds of the four different mentioned sugar beet plants were sown separately in the greenhouse and grew up to stage BBCH 14 for Beta vulgaris L. ssp. vulgaris (i.e. 4 leaves (the second pair) unfolded) according to the monographie “Entwicklungsstadien mono-und dikotyler Pflanzen”, 2nd edition, 2001, ed. Uwe Meier, Biologische Bundesanstalt für Land und Forstwirtschaft. Subsequently, the resulting separate groups of sugar beet plants were each individually treated with an ALS inhibitor (ALS-in) in the amounts (g/ha) indicated in Table 2.
(§1) On day 14 after application of the respective ALS inhibitor, the damage (i.e. the phytotoxicity) for each sugar beet plant was rated on a scale from 0% (i.e. no damage, no phytotoxicity) to 100% (i.e. the plants were completely killed).
Additionally, typical early phenotypes of each sugar beet plants were inspected after treatment with a mixture comprising thiencarbazone-methyl and foramsulfuron.

[2] = tested on: sugar beet plants where the tryptophan at position 569 of the ALS enzyme is substituted by a leucine (Line B); assay: Greenhouse trial, damage (phytotoxicity) rating after ALS inhibitor treatment, Line B; assay type: in vivo, Beta vulgaris L. ssp. vulgaris; conditions: day 14 after application at stage BBCH 14; scale 0% no damage to 100% completely killed; g/ha per herbicide
From the text: (§2) Uwe Meier, Biologische Bundesanstalt für Land und Forstwirtschaft. Subsequently, the resulting separate groups of sugar beet plants were each individually treated with an ALS inhibitor (ALS-in) in the amounts (g/ha) indicated in Table 2.
as §1

[3] = tested on: sugar beet plants where the proline at position 188 of the ALS enzyme is substituted by a serine (Line C); assay: Greenhouse trial, damage (phytotoxicity) rating after ALS inhibitor treatment, Line C; assay type: in vivo, Beta vulgaris L. ssp. vulgaris; conditions: day 14 after application at stage BBCH 14; scale 0% no damage to 100% completely killed; g/ha per herbicide
From the text: as §2, §1

[4] = tested on: traditional variety (wild-type) sugar beet plants (Line WT); assay: Greenhouse trial, damage (phytotoxicity) rating after ALS inhibitor treatment, Line WT; assay type: in vivo, Beta vulgaris L. ssp. vulgaris; conditions: day 14 after application at stage BBCH 14; scale 0% no damage to 100% completely killed; g/ha per herbicide
From the text: as §2, §1

[5] = tested on: regenerated sugar beets having the mutated SEQ.ID.NO:3 (heterozygote); assay type: in vivo, sugar beet; conditions: Foramsulfuron 12.5 g/ha, amidosulfuron 15 g/ha, iodosulfuron 3.5 g/ha, thiencarbazone-methyl 7.5 g/ha, up to 3 applications
From the text: (§3) The inventors compared the behaviour of regenerated sugar beets having the mutated SEQ.ID.NO:3 (heterozygote for this mutation) and a wild-type (naive) sugar beet commercial variety.

[6] = tested on: dual mutant plant comprising SEQ.ID.NO:3 and SEQ.ID.NO:5 (NCIMB 42050); assay type: in vivo, sugar beet; conditions: even when put in composition with organic compounds; compatible with field application
From the text: The inventors then developed a mutated sugar beet plant comprising SEQ.ID.NO:3 and SEQ.ID.NO:5 (on two different alleles). Such resulting dual mutant has been deposited under the Budapest Treaty under NCIMB 42050. A plant comprising both SEQ.ID.NO:3 and SEQ.ID.NO:5 can be generated by relying on several techniques, including, for instance, a subsequent mutagenesis step applied to the single mutant NCIMB 42051.
The inventors then compared the resistance of this dual mutant plant (a mutation in one allele at amino acid 569 and a mutation in the other allele at amino acid 188) with the single mutant (a mutation at position 569) sugar beet.

[7] = tested on: stomatal guard cell protoplasts; assay: Protoplasts viability under mutagenesis treatment; assay type: cell-based, sugar beet; conditions: treatment of more than 0.2% EMS
From the text: Possibly, this method further comprises the step of adding a mutagen agent to the culture of the isolated stomatal guard cell protoplasts.
Suitable mutagen agents are physical (such as UV or X-ray) exposure or exposure to chemical agents (such as Ethyl Methane Sulfonate (EMS), for instance at 0.05%, 0.1%, 0.15%, 0.2% or even at 2.5%).

[8] = tested on: homozygote 569/569 mutant sugar beet; conditions: WO 2012/049268; cited from earlier work
[9] = tested on: sugar beet mutant with proline at position 188 of ALS substituted by a serine; conditions: at the necessary dose rate; WO 98/02527 mutant; cited from earlier work
[10] = tested on: wild-type (naive) sugar beet commercial variety; assay: ALS inhibitor treatment of wild-type sugar beets (Example 3); assay type: in vivo; conditions: Foramsulfuron 12.5 g/ha, amidosulfuron 15 g/ha, iodosulfuron 3.5 g/ha, thiencarbazone-methyl 7.5 g/ha
From the text: as §3

[11] = day 14 after application at stage BBCH 14, scale 0% no damage to 100% completely killed, g/ha per herbicide

Structure (SMILES): COc1cc(OC)n2nc(S(=O)(=O)Nc3c(Cl)ccc(C)c3Cl)nc2n1 [Metosulam]
- damage (phytotoxicity) average rating, Line A [1, 11]: 13.1%
- damage (phytotoxicity) average rating, Line B [2]: 40.6%
- damage (phytotoxicity) average rating, Line C [3]: 69.4%
- damage (phytotoxicity) average rating, Line WT [4]: 79.4%

Structure (SMILES): COc1cc(OC)nc(NC(=O)NS(=O)(=O)N(C)S(C)(=O)=O)n1 [Amidosulfuron]
- damage (phytotoxicity) average rating, Line A ([1]; in vivo): 6.3%
- damage (phytotoxicity) average rating, Line B [2]: 37.5%
- damage (phytotoxicity) average rating, Line C [3]: 51.9%
- damage (phytotoxicity) average rating, Line WT [4]: 73.1%
- resistance of the (heterozygote) mutated variety to the herbicide [5]: same level of resistance
- resistance of the dual mutant plant line to the herbicide [6]: good resistance

Structure (SMILES): COc1cc(OC)nc(Oc2cccc(Oc3nc(OC)cc(OC)n3)c2C(=O)[O-])n1.[Na+] [Bisbyribac-Na]
- damage (phytotoxicity) average rating, Line A [1, 11]: 17.5%
- damage (phytotoxicity) average rating, Line B [2]: 38.1%
- damage (phytotoxicity) average rating, Line C [3]: 71.7%
- damage (phytotoxicity) average rating, Line WT [4]: 80.0%

Structure (SMILES): CCOS(C)(=O)=O [EMS, Ethyl Methane Sulfonate]
- protoplasts viability [7]: detrimentally affected

Structure (SMILES): COc1cc(OC)nc(NC(=O)NS(=O)(=O)c2cc(NC=O)ccc2C(=O)N(C)C)n1 [Foramsulfuron]
- damage (phytotoxicity) average rating, Line A [1, 11]: 26.9%
- damage (phytotoxicity) average rating, Line B [2]: 45.6%
- damage (phytotoxicity) average rating, Line C [3]: 77.5%
- damage (phytotoxicity) average rating, Line WT [4]: 80.0%
- resistance of the (heterozygote) mutated variety to the herbicide [5]: good resistance
- resistance of the (heterozygote) mutated variety to the herbicide ([5]; listed as foramsulfuron): best resistance
- resistance of homozygote 569/569 mutant in field trials [8]: good resistance
- phytotoxicity in field trials on proline 188 serine mutant [9]: some phytotoxicity

Structure (SMILES): COC(=O)c1csc(C)c1S(=O)(=O)NC(=O)n1nc(OC)n(C)c1=O [Thiencarbazone-methyl]
- damage (phytotoxicity) average rating, Line A [1, 11]: 8.1%
- damage (phytotoxicity) average rating, Line B [2]: 35.6%
- damage (phytotoxicity) average rating, Line C [3]: 37.5%
- damage (phytotoxicity) average rating, Line WT [4]: 84.4%
- resistance of the (heterozygote) mutated variety to the herbicide [5]: about the same level of resistance as for iodosulfuron
- sensitivity of the wild-type (naive) plant to the herbicide [10]: very sensitive
- resistance of the dual mutant plant line to the herbicide [6]: good resistance

Source: patent US10517244B2, “Method to develop herbicide-resistant sugar beet plants” (priority 2012, dated 2019)
